Measurements from ChEMBL document CHEMBL1765084, “Pyrimidine-2,4,6-trione derivatives and their inhibition of mutant SOD1-dependent protein aggregation. Toward a treatment for amyotrophic lateral sclerosis” (J Med Chem, 2011).
Converted amounts (≈) assume the structure as drawn. The source made the active and inactive calls. The rule behind the calls is not given here.

How the values were obtained:
[1] = Ratio of permeability from basolateral to apical side over apical to basolateral side in human Caco2 cells; details: Caco-2
Liver microsomes = test: Half life of the compound in human liver microsomes
Caco-2 [2] = test: Apparent Permeability across apical side to basolateral side in human Caco2 cells at 50 uM after 2 hrs; details: caco-2, 2 h
Plasma [3] = test: Half life in B6SJL mouse plasma by LC-MS/MS analysis
Caco-2 [4] = test: Apparent Permeability across basolateral to apical side in human Caco2 cells at 50 uM after 2 hrs; details: caco-2, 2 h
PC-12 [5] = test: Cytoprotection against SOD1 G93A mutant induced cytotoxicity in rat PC12 cells assessed as reduction of protein aggregates by fluorescent assay; type: functional, cell-based
[6] = Solubility of the compound in PBS buffer after 16 hrs
Liver = test: Half life of the compound in B6SJL mouse liver microsome; details: microsomes
Rattus norvegicus [7] = test: Volume of distribution at steady state in Sprague-Dawley rat at 1 mg/kg, iv; type: ADME, organism-based; parameters: dose 1 mg/kg, route intravenous; details: in vivo
Rattus norvegicus [8] = test: Oral bioavailability in Sprague-Dawley rat at 1 mg/kg; type: ADME, organism-based; details: in vivo
Rattus norvegicus [9] = test: Half life in Sprague-Dawley rat at 1 mg/kg, iv; type: ADME, organism-based; parameters: dose 1 mg/kg, route intravenous; details: in vivo
Plasma [10] = test: Plasma protein binding in rat at 2 uM; type: ADME, cell-free
Cytochrome P450 2D6 = Cytochrome P450 2D6 (Homo sapiens, UniProt P10635); test: Inhibition of CYP2D6 in human liver microsomes; type: ADME, Microsome
Cytochrome P450 2D6, sequence (P10635 whole entry): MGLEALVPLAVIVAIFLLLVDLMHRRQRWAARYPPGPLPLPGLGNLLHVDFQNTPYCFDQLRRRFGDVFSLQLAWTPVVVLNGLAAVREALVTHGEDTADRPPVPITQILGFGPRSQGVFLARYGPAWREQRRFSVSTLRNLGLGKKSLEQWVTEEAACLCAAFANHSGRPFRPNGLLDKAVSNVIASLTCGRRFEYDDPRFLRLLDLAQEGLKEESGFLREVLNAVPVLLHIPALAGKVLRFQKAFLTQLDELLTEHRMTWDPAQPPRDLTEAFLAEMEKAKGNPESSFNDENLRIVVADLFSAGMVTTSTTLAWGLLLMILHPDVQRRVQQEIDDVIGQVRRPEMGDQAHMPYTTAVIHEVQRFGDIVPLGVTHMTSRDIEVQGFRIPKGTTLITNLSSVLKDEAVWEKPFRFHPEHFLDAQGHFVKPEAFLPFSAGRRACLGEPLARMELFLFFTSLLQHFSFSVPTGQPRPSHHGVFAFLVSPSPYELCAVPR

[11] = Inhibition of sodium channel site 2 at 10 uM by radioligand binding assay
Rattus norvegicus [12] = test: AUC last in Sprague-Dawley rat at 1 mg/kg, iv; type: ADME, organism-based, Plasma; parameters: time 0 - last, dose 1 mg/kg, route intravenous; details: in vivo
Cytochrome P450 3A4 = Cytochrome P450 3A4 (Homo sapiens, UniProt P08684); test: Inhibition of CYP3A4 in human liver microsomes; type: ADME, Microsome
Cytochrome P450 3A4, sequence (P08684 whole entry): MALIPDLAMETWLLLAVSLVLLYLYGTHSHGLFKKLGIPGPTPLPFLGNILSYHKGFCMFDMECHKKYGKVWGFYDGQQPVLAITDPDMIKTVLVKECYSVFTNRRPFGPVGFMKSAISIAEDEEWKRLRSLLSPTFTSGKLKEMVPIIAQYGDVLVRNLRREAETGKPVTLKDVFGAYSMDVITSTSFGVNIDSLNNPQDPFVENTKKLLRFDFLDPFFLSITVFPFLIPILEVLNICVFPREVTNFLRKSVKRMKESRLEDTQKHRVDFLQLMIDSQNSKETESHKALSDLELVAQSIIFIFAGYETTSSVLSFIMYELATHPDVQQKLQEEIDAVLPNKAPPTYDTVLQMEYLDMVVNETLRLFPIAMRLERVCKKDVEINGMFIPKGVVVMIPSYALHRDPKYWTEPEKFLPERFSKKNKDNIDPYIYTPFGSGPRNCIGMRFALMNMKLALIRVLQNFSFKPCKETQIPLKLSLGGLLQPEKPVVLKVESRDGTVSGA

Rattus norvegicus [13] = test: Half life in Sprague-Dawley rat at 1 mg/kg, po; type: ADME, organism-based; parameters: dose 1 mg/kg, route oral; details: in vivo
Cytochrome P450 2C9 = Cytochrome P450 2C9 (Homo sapiens, UniProt P11712); test: Inhibition of CYP2C9 in human liver microsomes
Cytochrome P450 2C9, sequence (P11712 whole entry): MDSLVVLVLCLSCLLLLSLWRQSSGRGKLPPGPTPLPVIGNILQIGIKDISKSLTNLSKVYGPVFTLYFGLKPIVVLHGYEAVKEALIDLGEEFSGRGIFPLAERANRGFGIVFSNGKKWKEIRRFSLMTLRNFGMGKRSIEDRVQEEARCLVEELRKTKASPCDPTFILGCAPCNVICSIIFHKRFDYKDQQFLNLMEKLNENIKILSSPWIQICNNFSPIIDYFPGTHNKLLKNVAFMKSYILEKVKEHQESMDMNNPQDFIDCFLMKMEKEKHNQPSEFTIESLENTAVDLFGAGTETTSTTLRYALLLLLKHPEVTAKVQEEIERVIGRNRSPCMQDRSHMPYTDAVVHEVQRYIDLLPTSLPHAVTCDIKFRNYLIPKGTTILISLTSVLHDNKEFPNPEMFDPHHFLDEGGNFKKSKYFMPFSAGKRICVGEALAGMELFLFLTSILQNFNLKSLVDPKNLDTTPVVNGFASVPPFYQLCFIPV

[14] = target: D(3) dopamine receptor (Homo sapiens) (UniProt P35462); test: Inhibition of dopamine D3 receptor at 10 uM by radioligand binding assay
D(3) dopamine receptor (Homo sapiens), sequence (P35462 whole entry): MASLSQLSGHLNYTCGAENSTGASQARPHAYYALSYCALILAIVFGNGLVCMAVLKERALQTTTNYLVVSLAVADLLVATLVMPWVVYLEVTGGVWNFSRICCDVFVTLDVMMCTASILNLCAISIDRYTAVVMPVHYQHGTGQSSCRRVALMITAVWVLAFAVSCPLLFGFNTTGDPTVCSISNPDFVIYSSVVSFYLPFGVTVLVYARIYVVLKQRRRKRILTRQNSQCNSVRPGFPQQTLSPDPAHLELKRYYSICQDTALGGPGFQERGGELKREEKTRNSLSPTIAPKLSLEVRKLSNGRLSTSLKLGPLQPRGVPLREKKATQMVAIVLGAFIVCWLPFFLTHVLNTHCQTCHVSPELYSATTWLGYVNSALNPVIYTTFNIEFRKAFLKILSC

Rattus norvegicus [15] = test: AUC/dose in Sprague-Dawley rat at 1 mg/kg, po; type: ADME, organism-based, Plasma; parameters: dose 1 mg/kg, route oral; details: in vivo
Rattus norvegicus [16] = test: Cmax in Sprague-Dawley rat at 1 mg/kg, po; type: ADME, organism-based; parameters: dose 1 mg/kg, route oral; details: in vivo
PC-12 [17] = test: Cytoprotection against SOD1 G93A mutant induced cytotoxicity in rat PC12 cells assessed as reduction of protein aggregates at 1 uM by fluorescent assay; type: functional, cell-based
Cytochrome P450 1A2 = target: T1, Cytochrome P450 1A2 (Homo sapiens, UniProt P05177); test: Inhibition of CYP1A2 in human liver microsomes
T1 sequence (P05177 whole entry): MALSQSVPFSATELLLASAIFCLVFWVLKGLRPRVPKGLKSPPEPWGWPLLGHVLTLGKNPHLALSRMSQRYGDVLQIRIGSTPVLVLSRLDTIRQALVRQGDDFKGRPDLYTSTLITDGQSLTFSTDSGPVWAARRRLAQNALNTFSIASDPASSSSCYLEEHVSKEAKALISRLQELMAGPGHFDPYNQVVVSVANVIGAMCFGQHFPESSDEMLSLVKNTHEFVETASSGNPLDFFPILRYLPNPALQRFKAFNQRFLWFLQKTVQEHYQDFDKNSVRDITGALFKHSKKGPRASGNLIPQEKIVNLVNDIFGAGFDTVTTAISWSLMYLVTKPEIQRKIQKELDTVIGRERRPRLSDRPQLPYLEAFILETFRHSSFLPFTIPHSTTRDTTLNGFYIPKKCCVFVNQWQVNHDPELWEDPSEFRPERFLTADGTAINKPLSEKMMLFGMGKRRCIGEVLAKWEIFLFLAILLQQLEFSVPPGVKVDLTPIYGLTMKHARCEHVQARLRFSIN

PC-12 [18] = test: Cytoprotection against SOD1 G93A mutant induced cytotoxicity in rat PC12 cells assessed as reduction of protein aggregates at 10 uM by fluorescent assay in presence of proteasome inhibitor MG132; type: functional, cell-based
[19] = target: T2, Estrogen receptor (Homo sapiens) (UniProt P03372); test: Inhibition of ER alpha receptor at 10 uM by radioligand binding assay
T2 sequence (whole entry): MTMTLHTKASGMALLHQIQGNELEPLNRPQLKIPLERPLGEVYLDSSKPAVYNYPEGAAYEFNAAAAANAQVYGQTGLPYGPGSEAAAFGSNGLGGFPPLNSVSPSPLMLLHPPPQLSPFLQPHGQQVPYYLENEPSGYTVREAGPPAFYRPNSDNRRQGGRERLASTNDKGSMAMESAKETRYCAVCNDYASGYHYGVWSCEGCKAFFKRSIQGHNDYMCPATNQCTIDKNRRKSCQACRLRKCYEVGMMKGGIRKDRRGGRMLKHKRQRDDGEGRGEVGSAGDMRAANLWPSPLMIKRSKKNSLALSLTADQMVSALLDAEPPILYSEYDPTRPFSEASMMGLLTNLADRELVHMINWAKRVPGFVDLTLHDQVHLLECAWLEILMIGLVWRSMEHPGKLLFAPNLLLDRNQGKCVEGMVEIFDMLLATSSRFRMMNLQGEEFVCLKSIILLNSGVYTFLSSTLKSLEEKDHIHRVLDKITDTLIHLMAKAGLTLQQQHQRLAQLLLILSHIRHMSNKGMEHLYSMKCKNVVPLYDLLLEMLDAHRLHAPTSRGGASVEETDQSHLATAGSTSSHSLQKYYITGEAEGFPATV

hERG (KCNH2) = hERG (KCNH2) (Homo sapiens, UniProt Q12809); test: Inhibition of human ERG in cells at 10 uM by patch clamp assay relative to control; details: cells expressing human ERG
hERG (KCNH2), sequence (Q12809 whole entry): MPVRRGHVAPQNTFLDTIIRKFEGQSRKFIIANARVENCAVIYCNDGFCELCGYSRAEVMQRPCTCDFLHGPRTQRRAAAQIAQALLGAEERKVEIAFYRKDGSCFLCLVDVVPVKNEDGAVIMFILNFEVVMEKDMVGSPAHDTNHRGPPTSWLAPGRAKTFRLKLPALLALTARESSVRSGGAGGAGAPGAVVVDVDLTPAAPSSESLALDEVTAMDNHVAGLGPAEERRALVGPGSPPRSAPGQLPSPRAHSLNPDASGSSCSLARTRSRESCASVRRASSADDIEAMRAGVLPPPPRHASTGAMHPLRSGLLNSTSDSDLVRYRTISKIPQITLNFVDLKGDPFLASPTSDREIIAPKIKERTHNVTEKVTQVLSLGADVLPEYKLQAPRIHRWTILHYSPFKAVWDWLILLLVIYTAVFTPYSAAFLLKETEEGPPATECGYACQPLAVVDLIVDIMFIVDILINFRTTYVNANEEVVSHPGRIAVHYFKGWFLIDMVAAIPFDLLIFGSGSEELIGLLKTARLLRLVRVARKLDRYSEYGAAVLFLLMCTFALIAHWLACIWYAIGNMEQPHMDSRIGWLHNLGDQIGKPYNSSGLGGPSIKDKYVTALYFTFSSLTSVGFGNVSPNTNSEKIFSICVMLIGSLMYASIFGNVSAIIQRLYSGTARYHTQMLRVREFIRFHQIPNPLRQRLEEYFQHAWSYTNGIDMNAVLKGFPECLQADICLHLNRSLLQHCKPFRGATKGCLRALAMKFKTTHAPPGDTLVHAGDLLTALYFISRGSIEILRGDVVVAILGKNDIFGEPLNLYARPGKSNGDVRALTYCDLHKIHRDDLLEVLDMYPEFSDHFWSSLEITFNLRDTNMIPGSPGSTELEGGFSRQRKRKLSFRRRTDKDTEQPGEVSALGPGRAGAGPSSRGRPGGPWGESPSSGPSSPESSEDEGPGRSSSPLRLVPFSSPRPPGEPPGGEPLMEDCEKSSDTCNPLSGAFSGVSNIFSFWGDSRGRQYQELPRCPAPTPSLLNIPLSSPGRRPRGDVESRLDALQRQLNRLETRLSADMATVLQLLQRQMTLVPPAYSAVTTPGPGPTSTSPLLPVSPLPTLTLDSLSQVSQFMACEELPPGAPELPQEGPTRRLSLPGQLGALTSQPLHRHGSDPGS

Rattus norvegicus [20] = test: Tmax in Sprague-Dawley rat at 1 mg/kg, po; type: ADME, organism-based; parameters: dose 1 mg/kg, route oral; details: in vivo
Plasma [21] = test: Plasma protein binding in human at 2 uM; type: ADME, cell-free
Rattus norvegicus [22] = test: AUC/dose in Sprague-Dawley rat at 1 mg/kg, iv; type: ADME, organism-based, Plasma; parameters: dose 1 mg/kg, route intravenous; details: in vivo
[23] = Inhibition of GABA transporter at 10 uM by radioligand binding assay
PC-12 [24] = test: Cytoprotection against SOD1 G93A mutant induced cytotoxicity in rat PC12 cells after 24 hrs by fluorescent assay; type: functional, cell-based
Cytochrome P450 2C19 = Cytochrome P450 2C19 (Homo sapiens, UniProt P33261); test: Inhibition of CYP2C19 in human liver microsomes
Cytochrome P450 2C19, sequence (P33261 whole entry): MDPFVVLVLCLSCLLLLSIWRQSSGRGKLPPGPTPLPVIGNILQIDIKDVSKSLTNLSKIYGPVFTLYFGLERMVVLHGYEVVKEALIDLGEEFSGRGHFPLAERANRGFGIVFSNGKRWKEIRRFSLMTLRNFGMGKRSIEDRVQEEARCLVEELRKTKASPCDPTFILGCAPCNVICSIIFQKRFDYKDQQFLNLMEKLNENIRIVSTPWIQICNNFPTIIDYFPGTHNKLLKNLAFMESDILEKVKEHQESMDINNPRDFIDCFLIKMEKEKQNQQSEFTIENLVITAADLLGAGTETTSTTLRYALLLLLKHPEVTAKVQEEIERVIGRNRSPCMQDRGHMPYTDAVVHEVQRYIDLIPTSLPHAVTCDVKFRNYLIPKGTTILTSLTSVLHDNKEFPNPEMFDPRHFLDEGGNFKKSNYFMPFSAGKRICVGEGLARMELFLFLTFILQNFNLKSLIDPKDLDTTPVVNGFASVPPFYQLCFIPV

`O=C1CC(=O)N(CCCCc2ccccc2)C(=O)N1CCCCc1ccccc1` gave an efflux ratio [1] of 3.3, a t1/2 (Liver microsomes) of 15 min and a Papp (Caco-2 [2]) of 9.2 ×10⁻⁶ cm/s. The t1/2 (Plasma [3]) was 21.8 min, the Papp (Caco-2 [4]) was 30.2 ×10⁻⁶ cm/s and the EC50 (PC-12 [5]) was 0.68 µM. The solubility [6] was 105 µM (≈ 41.2 µg/mL) and the t1/2 (Liver) was 11 min.
`O=C1CC(=O)N(C2CCc3ccccc32)C(=O)N1C1CCc2ccccc21` (stereo not given) gave an EC50 (PC-12 [5]) greater than 32 µM.
With `CC(C)OCCN1C(=O)CC(=O)N(CCc2ccc(F)cc2)C1=O` the EC50 (PC-12 [5]) was 2.97 µM.
Compound `CCOCCN1C(=O)CC(=O)N(CCOCC)C1=O` has an EC50 (PC-12 [5]) of 7.75 µM.
For `O=C1CC(=O)N(CCc2ccccc2F)C(=O)N1CCc1ccccc1F`, the EC50 (PC-12 [5]) was 3.29 µM.
For `O=C1C(=O)N(C2CCCCC2)C(=O)N1C1CCCCC1`, the EC50 (PC-12 [5]) was greater than 32 µM.
`O=C1CC(=O)N(CCc2ccc(F)cc2)C(=O)N1CCOc1ccccc1` gave an EC50 (PC-12 [5]) of 1.32 µM.
`O=C1CC(=O)N(CCc2ccc(Cl)cc2Cl)C(=O)N1CCc1ccc(Cl)cc1Cl` showed an EC50 (PC-12 [5]) of 1.87 µM.
`O=C1CC(=O)N(C2CCCCC2)C(=O)N1C1CCCCC1` showed an EC50 (PC-12 [5]) of 2.97 µM.
For `CCCN1C(=O)CC(=O)N(CCC)C1=O`, the EC50 (PC-12 [5]) was 7.68 µM.
With `O=C1CC(=O)N(Cc2ccccc2)C(=O)N1Cc1ccccc1` the EC50 (PC-12 [5]) was 4.58 µM.
`O=C1CC(=O)N(CCc2cccs2)C(=O)N1CCc1ccc(F)cc1` gave an EC50 (PC-12 [5]) of 2.16 µM.
`CCCCCCCCN1C(=O)CC(=O)N(CCc2ccccc2)C1=O` gave an EC50 (PC-12 [5]) of 0.71 µM.
In the case of `O=C1CC(=O)N(CCc2ccccc2)C(=O)N1CCCc1ccccc1`, the EC50 (PC-12 [5]) is reported as 1.88 µM.
Work on `O=C1C(=Cc2ccc(OCc3ccccc3)cc2)C(=O)N(CCc2ccccc2)C(=O)N1CCc1ccccc1` yielded an EC50 (PC-12 [5]) of 2.84 µM.
With `COc1ccc(CCN2C(=O)CC(=O)N(CCc3ccc(OC)cc3)C2=O)cc1` the EC50 (PC-12 [5]) was 3.36 µM.
For `O=C1C(=Cc2c(Cl)cccc2Cl)C(=O)N(CCc2ccccc2)C(=O)N1CCc1ccccc1`, the EC50 (PC-12 [5]) was 3.1 µM.
Work on `O=C1CC(=O)N(C2CCCCC2)C(=O)N1CCc1ccccc1` yielded an EC50 (PC-12 [5]) of 1.67 µM.
Compound `O=c1cc(Cl)n(CCc2ccccc2)c(=O)n1CCc1ccccc1` has an EC50 (PC-12 [5]) greater than 32 µM.
In the case of `O=C1CC(=O)N(CC(c2ccccc2)c2ccccc2)C(=O)N1CCCCc1ccccc1`, the EC50 (PC-12 [5]) is reported as 3.61 µM.
`O=C1C(=Cc2ccc[nH]2)C(=O)N(CCc2ccccc2)C(=O)N1CCc1ccccc1` showed an EC50 (PC-12 [5]) of 3.55 µM.
For `O=C1NC(=O)N(C2CCCCC2)C1=O`, the EC50 (PC-12 [5]) was greater than 32 µM.
For `O=C1CC(=O)N(CCCc2ccccc2)C(=O)N1CCCc1ccccc1`, the EC50 (PC-12 [5]) was 1.32 µM.
`CC1(C)C(=O)N(CCc2ccccc2)C(=O)N(CCc2ccccc2)C1=O` gave an EC50 (PC-12 [5]) greater than 32 µM.
`O=C1CC(=O)N(CCc2ccccc2)C(=O)N1CCc1ccccc1` gave a Vdss (Rattus norvegicus [7]) of 9 L/kg, an F (Rattus norvegicus [8]) of 98% and a t1/2 (Rattus norvegicus [9]) of 57 min. For the same compound, the PPB (Plasma [10]) was 95%, the IC50 (Cytochrome P450 2D6) was greater than 50 µM and the inhibition [11] was 21%. For the same compound, the AUClast (Rattus norvegicus [12]) was 121 ng·h/mL, the IC50 (Cytochrome P450 3A4) was greater than 50 µM and the t1/2 (Rattus norvegicus [13]) was 84 min. For the same compound, the IC50 (Cytochrome P450 2C9) was greater than 50 µM, the inhibition [14] was 41% and the AUC/dose (Rattus norvegicus [15]) was 124 ng·h/mL. The Cmax (Rattus norvegicus [16]) was 55 ng/mL, the Activity (PC-12 [17]) was “Dose-dependent effect” and the IC50 (Cytochrome P450 1A2) was greater than 50 µM. For the same compound, the t1/2 (Liver microsomes) was 61 min, the t1/2 (Plasma [3]) was 60.5 min and the Activity (PC-12 [18]) was “Active”. The inhibition [19] was 20%, the inhibition at 10 µM (hERG (KCNH2)) was 4.9% and the Papp (Caco-2 [4]) was 26 ×10⁻⁶ cm/s. For the same compound, the Tmax (Rattus norvegicus [20]) was 45 min, the PPB (Plasma [21]) was 90% and the EC50 (PC-12 [5]) was 1.68 µM. For the same compound, the AUC/dose (Rattus norvegicus [22]) was 126 ng·h/mL, the inhibition [23] was 19% and the Activity (PC-12 [24]) was “Dose-dependent effect”. For the same compound, the IC50 (Cytochrome P450 2C19) was greater than 50 µM and the t1/2 (Liver) was 39 min.
